Experimental data as given in ChEMBL document CHEMBL1201862, “PubChem BioAssay data set” (2004).
One block for each compound: values may come before it. Active and inactive are the calls of the source. For most assays here, no stated cut-off is given here; in the data, actives have a measured EC50 and inactives only a lower limit.

Key:
[1] = molecular target: Polyadenylate-binding protein 1 (Homo sapiens, UniProt P11940); test: PABP poly(A) RNA binding inhibitors, primary screen, biochemical, fluorescence polarization, uHTS (AID 2014)
Sequence of Polyadenylate-binding protein 1 (P11940 whole entry): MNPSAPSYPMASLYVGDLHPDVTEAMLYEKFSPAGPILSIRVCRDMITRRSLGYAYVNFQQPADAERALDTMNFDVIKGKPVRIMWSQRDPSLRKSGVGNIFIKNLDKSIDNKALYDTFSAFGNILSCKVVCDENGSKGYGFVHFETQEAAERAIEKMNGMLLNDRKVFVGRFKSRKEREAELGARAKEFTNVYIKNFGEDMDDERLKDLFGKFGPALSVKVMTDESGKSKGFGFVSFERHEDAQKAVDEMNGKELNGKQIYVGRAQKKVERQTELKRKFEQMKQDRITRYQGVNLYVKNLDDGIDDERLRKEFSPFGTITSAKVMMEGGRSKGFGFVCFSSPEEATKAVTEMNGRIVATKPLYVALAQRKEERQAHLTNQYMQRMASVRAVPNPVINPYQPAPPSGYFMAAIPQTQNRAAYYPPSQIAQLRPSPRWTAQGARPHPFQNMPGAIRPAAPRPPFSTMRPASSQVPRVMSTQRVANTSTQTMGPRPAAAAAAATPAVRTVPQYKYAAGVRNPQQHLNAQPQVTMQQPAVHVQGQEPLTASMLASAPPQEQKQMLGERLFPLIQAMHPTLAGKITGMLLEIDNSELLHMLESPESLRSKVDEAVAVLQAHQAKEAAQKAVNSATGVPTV

[2] = molecular target: T1, DNA dC->dU-editing enzyme APOBEC-3A (Homo sapiens, UniProt P31941); test: Dose Response confirmation of small molecule APOBEC3A DNA Deaminase Inhibitors via a fluorescence-based single-stranded DNA deaminase assay. [Related pubchem assays (depositor defined):AID493011, AID493024]; assay type: functional
T1 sequence (P31941 whole entry): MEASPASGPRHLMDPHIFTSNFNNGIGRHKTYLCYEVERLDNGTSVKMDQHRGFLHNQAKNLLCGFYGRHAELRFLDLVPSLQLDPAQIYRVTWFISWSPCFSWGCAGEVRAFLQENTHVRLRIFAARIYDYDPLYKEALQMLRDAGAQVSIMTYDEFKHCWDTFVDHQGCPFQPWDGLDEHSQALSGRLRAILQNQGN

[3] = molecular target: T2, DNA dC->dU-editing enzyme APOBEC-3G (Homo sapiens, UniProt Q9HC16); assay type: functional;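 further: Dose-response counterscreen measuring inhibition of APOBEC3G DNA deaminase activity, run while confirming APOBEC3A inhibitors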
T2 sequence (Q9HC16 whole entry): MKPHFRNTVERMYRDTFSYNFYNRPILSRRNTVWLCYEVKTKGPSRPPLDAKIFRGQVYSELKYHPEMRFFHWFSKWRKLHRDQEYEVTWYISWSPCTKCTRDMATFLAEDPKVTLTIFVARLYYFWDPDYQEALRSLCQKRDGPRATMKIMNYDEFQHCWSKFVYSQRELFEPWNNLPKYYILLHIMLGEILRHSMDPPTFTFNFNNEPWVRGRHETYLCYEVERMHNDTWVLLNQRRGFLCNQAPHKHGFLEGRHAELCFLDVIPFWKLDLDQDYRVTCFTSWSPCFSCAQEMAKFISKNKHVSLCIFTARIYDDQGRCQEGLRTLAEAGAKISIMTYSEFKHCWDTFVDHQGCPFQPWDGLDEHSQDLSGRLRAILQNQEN

[4] = molecular target: T2, DNA dC->dU-editing enzyme APOBEC-3G; test: APOBEC3G deaminase inhibitors, SAR follow-up, biochemical, fluorescence, single-stranded DNA substrate (AID 602136); assay type: functional; conditions: read-out: IC50_Mean
[5] = molecular target: Eukaryotic translation initiation factor 4H (Homo sapiens, UniProt Q15056); test: human eIF4H binding inhibitors, primary screen, translation initiation inhibitor project, biochemical, uHTS, fluorescence polarization (AID 2012)
[6] = molecular target: T1, DNA dC->dU-editing enzyme APOBEC-3A; test: SAR analysis of small molecule inhibitors of APOBEC3A DNA Deaminase via a fluorescence-based single-stranded DNA deaminase assay.; assay type: functional; conditions: read-out: IC50_Mean
[7] = molecular target: Apoptotic protease-activating factor 1 (Homo sapiens, UniProt O14727); assay type: functional
Sequence of Apoptotic protease-activating factor 1 (O14727 whole entry): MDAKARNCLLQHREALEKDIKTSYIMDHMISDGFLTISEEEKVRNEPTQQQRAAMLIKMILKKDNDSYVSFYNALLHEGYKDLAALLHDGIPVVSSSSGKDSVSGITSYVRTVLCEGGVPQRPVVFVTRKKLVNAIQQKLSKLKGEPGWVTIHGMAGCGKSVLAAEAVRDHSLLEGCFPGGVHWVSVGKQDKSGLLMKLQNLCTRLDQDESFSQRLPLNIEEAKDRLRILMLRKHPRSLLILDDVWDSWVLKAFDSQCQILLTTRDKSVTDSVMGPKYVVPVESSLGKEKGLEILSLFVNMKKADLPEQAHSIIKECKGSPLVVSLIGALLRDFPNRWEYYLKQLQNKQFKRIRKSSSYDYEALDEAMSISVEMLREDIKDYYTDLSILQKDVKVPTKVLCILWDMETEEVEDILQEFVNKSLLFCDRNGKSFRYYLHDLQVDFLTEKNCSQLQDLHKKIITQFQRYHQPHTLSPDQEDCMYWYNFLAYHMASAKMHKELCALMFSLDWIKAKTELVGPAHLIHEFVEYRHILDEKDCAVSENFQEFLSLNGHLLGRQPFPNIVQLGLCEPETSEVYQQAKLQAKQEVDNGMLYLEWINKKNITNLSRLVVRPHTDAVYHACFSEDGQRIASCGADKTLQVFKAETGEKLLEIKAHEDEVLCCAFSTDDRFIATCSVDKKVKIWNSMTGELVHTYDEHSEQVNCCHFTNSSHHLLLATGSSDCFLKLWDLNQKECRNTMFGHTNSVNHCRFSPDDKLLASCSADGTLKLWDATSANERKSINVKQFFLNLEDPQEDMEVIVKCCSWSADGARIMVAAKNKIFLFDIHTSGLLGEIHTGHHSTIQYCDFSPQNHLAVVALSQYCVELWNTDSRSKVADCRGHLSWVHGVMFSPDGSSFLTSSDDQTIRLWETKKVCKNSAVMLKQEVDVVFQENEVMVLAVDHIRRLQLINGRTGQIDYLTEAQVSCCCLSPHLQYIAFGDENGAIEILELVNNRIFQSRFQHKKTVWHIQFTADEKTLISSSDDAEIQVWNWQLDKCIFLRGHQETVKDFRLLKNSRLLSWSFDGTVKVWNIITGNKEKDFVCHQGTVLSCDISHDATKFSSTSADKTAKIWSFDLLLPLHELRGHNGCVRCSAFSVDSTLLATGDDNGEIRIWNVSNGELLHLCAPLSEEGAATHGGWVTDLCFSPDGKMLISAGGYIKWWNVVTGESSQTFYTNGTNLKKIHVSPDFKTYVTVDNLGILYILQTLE

[8] = molecular target: Lysine-specific demethylase 4C (Homo sapiens, UniProt Q9H3R0); test: GASC-1 (JMJD2C) histone demethylase inhibitors, dose response, biochemical, DELFIA europium, cherry-picked samples (AID 488835); assay type: functional
Sequence of Lysine-specific demethylase 4C (Q9H3R0 whole entry): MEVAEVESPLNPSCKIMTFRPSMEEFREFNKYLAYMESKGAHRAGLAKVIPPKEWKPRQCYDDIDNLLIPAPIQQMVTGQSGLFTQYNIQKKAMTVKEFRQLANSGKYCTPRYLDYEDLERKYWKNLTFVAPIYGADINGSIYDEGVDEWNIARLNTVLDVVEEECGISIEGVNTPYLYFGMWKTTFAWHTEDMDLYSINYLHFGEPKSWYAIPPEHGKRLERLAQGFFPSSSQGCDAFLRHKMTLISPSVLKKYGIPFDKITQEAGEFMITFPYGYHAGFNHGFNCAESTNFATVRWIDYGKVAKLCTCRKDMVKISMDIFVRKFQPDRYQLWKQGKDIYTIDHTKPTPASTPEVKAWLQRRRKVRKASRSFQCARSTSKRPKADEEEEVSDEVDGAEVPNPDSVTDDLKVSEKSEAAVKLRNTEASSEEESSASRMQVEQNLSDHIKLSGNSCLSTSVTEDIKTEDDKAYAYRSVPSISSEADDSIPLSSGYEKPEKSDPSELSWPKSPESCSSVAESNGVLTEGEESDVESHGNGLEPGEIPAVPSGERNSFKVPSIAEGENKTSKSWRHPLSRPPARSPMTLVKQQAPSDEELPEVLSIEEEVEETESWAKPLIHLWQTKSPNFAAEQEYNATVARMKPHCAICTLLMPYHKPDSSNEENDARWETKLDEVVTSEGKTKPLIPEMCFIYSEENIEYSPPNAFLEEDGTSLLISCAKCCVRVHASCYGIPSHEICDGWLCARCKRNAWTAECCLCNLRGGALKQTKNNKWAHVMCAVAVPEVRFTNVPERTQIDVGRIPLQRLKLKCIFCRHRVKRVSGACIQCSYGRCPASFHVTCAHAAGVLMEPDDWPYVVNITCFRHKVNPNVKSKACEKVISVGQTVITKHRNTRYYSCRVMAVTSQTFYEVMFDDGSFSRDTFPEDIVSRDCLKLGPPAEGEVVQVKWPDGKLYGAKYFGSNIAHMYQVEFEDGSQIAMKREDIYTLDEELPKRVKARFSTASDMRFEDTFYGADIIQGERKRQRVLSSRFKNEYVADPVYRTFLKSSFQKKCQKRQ

[9] = molecular target: ATP-dependent molecular chaperone HSP82 (Candida albicans (strain WO-1) (Yeast), UniProt C4YTQ8); test: loss of DOC-induced GRE-beta-galactosidase reporter signal, dose response, Hsp90 inhibitor project, S. cerevisiae, luminescence (AID 2400); assay type: functional, cell-based;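 further: beta-galactosidase luminescence from glucocorticoid response element reporter as proxy for Hsp90 function; inhibitor potency where signal loss means Hsp90 inhibition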
Sequence of ATP-dependent molecular chaperone HSP82 (C4YTQ8 whole entry): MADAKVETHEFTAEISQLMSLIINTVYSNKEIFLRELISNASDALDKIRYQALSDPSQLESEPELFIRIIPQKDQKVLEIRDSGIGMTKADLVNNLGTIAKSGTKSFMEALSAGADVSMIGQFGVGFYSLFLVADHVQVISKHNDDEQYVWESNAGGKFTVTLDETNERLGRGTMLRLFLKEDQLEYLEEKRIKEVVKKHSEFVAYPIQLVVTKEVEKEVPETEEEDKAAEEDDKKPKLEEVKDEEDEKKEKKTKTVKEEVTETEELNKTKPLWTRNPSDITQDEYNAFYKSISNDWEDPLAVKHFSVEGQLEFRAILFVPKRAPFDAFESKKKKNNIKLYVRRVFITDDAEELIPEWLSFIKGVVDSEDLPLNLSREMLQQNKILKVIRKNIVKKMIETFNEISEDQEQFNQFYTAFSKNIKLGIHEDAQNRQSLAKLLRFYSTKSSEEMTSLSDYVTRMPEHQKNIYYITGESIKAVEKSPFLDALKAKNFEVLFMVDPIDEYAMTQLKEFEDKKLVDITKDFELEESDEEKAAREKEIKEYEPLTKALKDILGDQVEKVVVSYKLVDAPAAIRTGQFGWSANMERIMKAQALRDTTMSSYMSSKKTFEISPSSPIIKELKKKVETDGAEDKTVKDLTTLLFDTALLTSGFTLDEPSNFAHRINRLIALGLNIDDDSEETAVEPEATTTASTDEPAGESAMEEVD

HEK293 = test: inhibitors of LMP1-driven NF-kB reporter, dose response, cell-based, HEK293, luciferase, cherry-pick (AID 588343); assay type: functional; conditions: Homo sapiens
BJ [10] = test: cells; assay type: functional, cell-based; conditions: Homo sapiens
[11] = molecular target: T3, Serine/threonine-protein phosphatase (Candida dubliniensis (strain CD36 / CBS 7987 / NCPF 3949 / NRRLY-17841) (Yeast), UniProt B9W6M3); test: calcineurin pathway inhibitors in yeast reporter, dose response, S. cerevisiae, CDRE-lacZ, luminescence, secondary (AID 2388); assay type: functional, cell-based;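 further: yeast reporter cells carrying a calcineurin-responsive lacZ construct stimulated with calcium chloride; luminescent beta-galactosidase reporter signal in whole cells rather than isolated phosphatase activity; potency for inhibition where a drop in reporter signal means calcineurin blockade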
T3 sequence (B9W6M3 whole entry): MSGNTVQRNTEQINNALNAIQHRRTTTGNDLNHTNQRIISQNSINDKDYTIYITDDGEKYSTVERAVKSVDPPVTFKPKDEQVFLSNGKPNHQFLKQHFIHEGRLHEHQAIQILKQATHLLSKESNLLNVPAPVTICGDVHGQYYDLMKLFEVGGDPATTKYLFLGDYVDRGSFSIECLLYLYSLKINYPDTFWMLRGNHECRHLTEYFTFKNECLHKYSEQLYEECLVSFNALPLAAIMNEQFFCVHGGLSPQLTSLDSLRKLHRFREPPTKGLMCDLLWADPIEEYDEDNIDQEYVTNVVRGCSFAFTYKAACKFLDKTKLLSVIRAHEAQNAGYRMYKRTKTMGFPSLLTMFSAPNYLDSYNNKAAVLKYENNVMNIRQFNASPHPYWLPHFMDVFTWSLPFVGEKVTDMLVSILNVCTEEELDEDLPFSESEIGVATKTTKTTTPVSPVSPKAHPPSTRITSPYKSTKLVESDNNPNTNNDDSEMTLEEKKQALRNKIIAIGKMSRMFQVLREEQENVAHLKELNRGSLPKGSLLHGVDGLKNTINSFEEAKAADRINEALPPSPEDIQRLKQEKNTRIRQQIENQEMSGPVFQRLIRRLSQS

BJ [12] = test: cytotoxicity toward BJ-TERT-LT-ST fibroblasts, dose response, cell-based, RAS-independent, luminescence (AID 1935); assay type: functional; conditions: Homo sapiens;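 further: BJ fibroblasts immortalized with TERT plus LT and ST oncogenes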
[13] = Luminescence-based counterscreen assay for KLF5 inhibitors: dose response cell-based high throughput screening assay to identify cytotoxic compounds using the IEC-6 intestinal epithelial cell line. [Related pubchem assays: 1700 (Primary screen.), 1834 (Confirmation screen.), 1858 (Summary AID.), 1905 (Counterscreen.)]; assay type: functional
cells [14] = assay type: functional, cell-based
BJ [15] = test: cytotoxicity toward BJ-TERT fibroblasts, dose response, cell-based, RAS-independent, luminescence (AID 1933); assay type: functional; conditions: Homo sapiens
[16] = molecular target: Latent membrane protein 1 (Human herpesvirus 4 (strain B95-8), UniProt P03230); test: TES1-eGFP NF-kB reporter inhibition versus Tet-On dsRED, dose response, selectivity assay for LMP1 NF-kB inhibitor project, imaging, HEK293T, dual-color eGFP/dsRED, cherry-picks (AID 588398); assay type: functional, cell-based
Sequence of Latent membrane protein 1 (P03230 whole entry): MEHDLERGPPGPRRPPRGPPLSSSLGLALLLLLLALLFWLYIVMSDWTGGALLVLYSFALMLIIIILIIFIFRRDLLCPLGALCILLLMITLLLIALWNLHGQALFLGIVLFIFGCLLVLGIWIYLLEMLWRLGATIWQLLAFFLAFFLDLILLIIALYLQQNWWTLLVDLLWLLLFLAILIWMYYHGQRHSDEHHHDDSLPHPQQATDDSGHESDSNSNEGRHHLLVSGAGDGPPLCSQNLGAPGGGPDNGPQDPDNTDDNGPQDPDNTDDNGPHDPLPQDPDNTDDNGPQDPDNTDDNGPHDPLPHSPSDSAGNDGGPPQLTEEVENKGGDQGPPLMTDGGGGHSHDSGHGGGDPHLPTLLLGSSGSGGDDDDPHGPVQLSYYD

cells [17] = assay type: functional, cell-based; remark: listed apart in the source
[18] = cytotoxicity toward NIH3T3 fibroblasts, dose response, counter-screen, cell-based, ATP luminescence, mouse fibroblasts (AID 2010); assay type: functional;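 further: cells exposed to compound for about 90 hours before reading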
[19] = NIH-3T3 fibroblast cytotoxicity, dose response, cytotoxicity control, cell-based, fluorescence, Alamar Blue, secondary assay (AID 2327); assay type: functional;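 further: NIH-3T3 mouse fibroblasts cultured with fluconazole at 8 µg/mL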
[20] = cytotoxicity toward DRD oncogenic fibroblasts, dose response, cell-based, non-viral oncogenic, luminescence (AID 1934); assay type: functional; conditions: Homo sapiens
[21] = inhibitors of intracellular T. cruzi replication, confirmation, NIH3T3 host cells, beta-gal luminescence (AID 2044); assay type: functional, cell-based;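 further: intracellular parasites grown in NIH/3T3 mouse fibroblasts as host cells; luminescent beta-galactosidase reporter signal from transgenic T. cruzi replicating inside host cells; inhibitors lower the luminescence signal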
[22] = C. albicans growth with fluconazole, confirmation, fluorescence, retest (AID 2467); assay type: functional, cell-based

IC50 [1]: 10.3 µM (active) | IC50 [2]: 4.97 µM (active) | IC50 [3]: 6.8 µM (active) | IC50 [4]: > 99 µM (inactive) | IC50 [5]: > 100 µM (inactive) | IC50 [6]: 43 µM (inactive)
Compound: CC1(C)Oc2ccc3ccc(=O)oc3c2C(/C=N/O)=C1Cl

IC50 [7]: 20 µM (active) | AC50 [8]: 8.88 µM (active)
Compound: Oc1cc(N/N=C/c2ccccc2)nc(O)n1

Compound: Cc1ccc(C(=O)N/N=C/c2c(O)ccc3ccccc23)cn1
EC50 [9]: > 150 µM (inactive) | AC50 (HEK293): 5.41 µM (active) | EC50 (BJ [10]): 10.4 µM (inconclusive) | EC50 [11]: > 180 µM (inactive) | EC50 (BJ [12]): 13.1 µM (active) | IC50 [13]: 3.96 µM (active) | EC50 (cells [14]): 6.93 µM (active) | EC50 (BJ [15]): 1 µM (active) | AC50 [16]: 9.88 µM (active) | EC50 (cells [17]): > 350 µM (not active) | EC50 [18]: 10.9 µM (active) | EC50 [19]: > 150 µM (inactive) | EC50 [20]: 2.72 µM (active) | EC50 [21]: 1.59 µM (active) | EC50 [22]: 0.803 µM (active)
